Literature values, collected in US20250325558A1, “MODULATION OF BACE1 AS A THERAPY FOR SPINOCEREBELLAR ATAXIA” (The General Hospital Corporation, priority 2022, published 2025).

Settings: preclinical and clinical studies

## CN1C(=N)N[C@](C)(c2cc(NC(=O)c3ccc(F)cn3)ccc2F)CS1(=O)=O [MK-8931, verubecestat]
  serious adverse side effects such as liver toxicity: did not produce any serious adverse side effects such as liver toxicity
